# Data from article PMC9330353 (Journal of Fungi, 2022).
# Entries after “also recorded” stand apart in the source; their conditions may differ.
# Assays:
# Pdr5p [1] = target: T1, Pdr5p (Saccharomyces cerevisiae, UniProt P33302); settings: at 100 μg/mL; cited from earlier work
# T1 construct: AD/124567 cells in the exponential growth phase were harvested by centrifugation; endogenous in cells; host or cells: S. cerevisiae strain AD/124567 (PDR1-3; other MDR ABC transporter genes deleted)
# [2] = tested on: S. cerevisiae strain AD/124567 (overexpresses Pdr5p); assay: Antifungal susceptibility test (microbroth dilution), strain AD/124567; type: cell-based, Saccharomyces cerevisiae; settings: tested strains AD/1234567 and AD/124567, up to 100 μM
# Description: (§1) In this study, two S. cerevisiae mutant strains were used. Strain AD/124567 (genotype: MATα, PDR1-3, ura3, his1, Δyor1::hisG, Δsnq2::hisG, Δpdr10::hisG, Δpdr11::hisG, Δycf1::hisG, Δpdr3::hisG) overexpressed Pdr5p, but the genes of all other ABC transporters related to the MDR phenotype (Yor1p, Snq2p, Pdr10p, Pdr11p, and Ycf1p) were deleted. A second strain, AD/1234567, had all MDR related genes deleted, including PDR5 (genotype: MATα, PDR1-3, ura3, his1, Δyor1::hisG, Δsnq2::hisG, Δpdr5::hisG, Δpdr10::hisG, Δpdr11::hisG, Δycf1::hisG, Δpdr3::hisG). Therefore, this strain was highly sensitive to fluconazole. One fluconazole-resistant Candida albicans strain was also used in this study, namely, 95-142. This strain was isolated from the throat of a patient and identified by CHROMagar^TM and PCR. The isolate overexpressed CaCdr1p and CaCdr2p (the most important MDR transporters of C. albicans), and was kindly provided by Dr. Theodore White (University of Missouri, Kansas City, MO, USA).
# The antifungal activity of the compounds was evaluated via a microbroth dilution method described by Niimi et al.. […] Culture growth was measured using a microplate reader at 600 nm (Fluostar Optima, BMG Labtech, Offenburg, Germany). […] Growth inhibition was calculated as follows: % Growth inhibition = (Absorbance of growth control − Absorbance of treated sample) × 100/Absorbance of growth control
# strain AD/124567 [3] = assay: Checkerboard assay with fluconazole, strain AD/124567; type: cell-based, Saccharomyces cerevisiae
# Method: (§2) Culture growth was measured using a microplate reader at 600 nm (Fluostar Optima, BMG Labtech, Offenburg, Germany). Growth inhibition was calculated as described in Section 2.3.
# (§3) FICI ≤ 0.5 points to a synergic interaction, whereas 0.5 < FICI < 4.0 and FICI > 4 indicate indifferent and antagonistic interactions, respectively.
# Pdr5p [4] = target: T1, Pdr5p; assay: Rhodamine 6G accumulation/efflux assay; type: cell-based; settings: strain AD/124567 in the presence of glucose
# Method: Efflux assays were performed as described by Reis de Sá et al. (2017). Briefly, AD/124567 cells in the exponential growth phase were harvested by centrifugation at 5000 rpm at room temperature for 5 min, and then washed twice with phosphate-buffered saline (PBS) (0.43 g of KH2PO4; 7.2 g of NaCl; 1.85 g of Na2HPO4; pH 7.2; 990 mL of distilled water). Cells were then resuspended in 10 mL of PBS and starved for 2 h at 4 °C. Subsequently, 10^7 cells/mL were incubated for 30 min at 30 °C with 15 μM R6G. After incubation, cells were washed twice with PBS and further incubated in the presence of the compounds, DMSO, and FK-506 (a classical inhibitor of ABC transporters) for 60 min at 30 °C. […] The supernatants were transferred to the wells of a 96-well polystyrene plate, and fluorescence was measured with a plate reader (Fluostar Optima, BMG Labtech, Offenburg, Germany) at 485 nm (excitation) and 538 nm (emission). To evaluate R6G efflux, fluorescence emitted by the dye in the extracellular milieu was measured. Thus, the fluorescence was directly related to extracellular R6G concentration, and then to Pdr5p activity. […] R6G efflux was calculated as follows: (2) % efflux = Fluorescence of treated sample × 100/Fluorescence of AD/124567 with glucose […]
# [5] = tested on: fluconazole-resistant Candida albicans strain 95-142; assay: Checkerboard assay with fluconazole, strain 95-142; type: cell-based; settings: read-out: Fluconazole MIC a (alone)
# Description: as §1, §2, §3
# strain AD/124567 [6] = assay: Disk diffusion chemosensitization assay; type: cell-based, Saccharomyces cerevisiae; settings: strain AD/124567, medium with 150 µg/mL fluconazole, 50 μg compound per disk, 48 h
# Method: To evaluate the ability of the compounds in reversing the MDR phenotype of strain AD/124567, a chemosensitization assay was performed, with slight modifications. Briefly, YPD medium containing 150 µg/mL fluconazole was prepared with 1.5% agarose, and a cell suspension from AD/124567 was incorporated into molten medium (45 °C), reaching a final concentration of 2.4 × 10^6 yeasts/mL. Subsequently, 50 μg of each compound was applied to 6-milimeter Whatman 3MM® blotting paper disks (Sigma-Aldrich®, St. Louis, MO, USA), dried at 30 °C for 30 min, and placed on the solidified medium surface. The plates were incubated at 30 °C for 48 h, photographed, and the inhibition zones were measured. A fluconazole-free medium was also used to evaluate the effects of the compounds alone on yeast growth.
# Pdr5p [7] = target: T1, Pdr5p; settings: at 200 μM; cited from earlier work
# T1 sequence (P33302 whole entry): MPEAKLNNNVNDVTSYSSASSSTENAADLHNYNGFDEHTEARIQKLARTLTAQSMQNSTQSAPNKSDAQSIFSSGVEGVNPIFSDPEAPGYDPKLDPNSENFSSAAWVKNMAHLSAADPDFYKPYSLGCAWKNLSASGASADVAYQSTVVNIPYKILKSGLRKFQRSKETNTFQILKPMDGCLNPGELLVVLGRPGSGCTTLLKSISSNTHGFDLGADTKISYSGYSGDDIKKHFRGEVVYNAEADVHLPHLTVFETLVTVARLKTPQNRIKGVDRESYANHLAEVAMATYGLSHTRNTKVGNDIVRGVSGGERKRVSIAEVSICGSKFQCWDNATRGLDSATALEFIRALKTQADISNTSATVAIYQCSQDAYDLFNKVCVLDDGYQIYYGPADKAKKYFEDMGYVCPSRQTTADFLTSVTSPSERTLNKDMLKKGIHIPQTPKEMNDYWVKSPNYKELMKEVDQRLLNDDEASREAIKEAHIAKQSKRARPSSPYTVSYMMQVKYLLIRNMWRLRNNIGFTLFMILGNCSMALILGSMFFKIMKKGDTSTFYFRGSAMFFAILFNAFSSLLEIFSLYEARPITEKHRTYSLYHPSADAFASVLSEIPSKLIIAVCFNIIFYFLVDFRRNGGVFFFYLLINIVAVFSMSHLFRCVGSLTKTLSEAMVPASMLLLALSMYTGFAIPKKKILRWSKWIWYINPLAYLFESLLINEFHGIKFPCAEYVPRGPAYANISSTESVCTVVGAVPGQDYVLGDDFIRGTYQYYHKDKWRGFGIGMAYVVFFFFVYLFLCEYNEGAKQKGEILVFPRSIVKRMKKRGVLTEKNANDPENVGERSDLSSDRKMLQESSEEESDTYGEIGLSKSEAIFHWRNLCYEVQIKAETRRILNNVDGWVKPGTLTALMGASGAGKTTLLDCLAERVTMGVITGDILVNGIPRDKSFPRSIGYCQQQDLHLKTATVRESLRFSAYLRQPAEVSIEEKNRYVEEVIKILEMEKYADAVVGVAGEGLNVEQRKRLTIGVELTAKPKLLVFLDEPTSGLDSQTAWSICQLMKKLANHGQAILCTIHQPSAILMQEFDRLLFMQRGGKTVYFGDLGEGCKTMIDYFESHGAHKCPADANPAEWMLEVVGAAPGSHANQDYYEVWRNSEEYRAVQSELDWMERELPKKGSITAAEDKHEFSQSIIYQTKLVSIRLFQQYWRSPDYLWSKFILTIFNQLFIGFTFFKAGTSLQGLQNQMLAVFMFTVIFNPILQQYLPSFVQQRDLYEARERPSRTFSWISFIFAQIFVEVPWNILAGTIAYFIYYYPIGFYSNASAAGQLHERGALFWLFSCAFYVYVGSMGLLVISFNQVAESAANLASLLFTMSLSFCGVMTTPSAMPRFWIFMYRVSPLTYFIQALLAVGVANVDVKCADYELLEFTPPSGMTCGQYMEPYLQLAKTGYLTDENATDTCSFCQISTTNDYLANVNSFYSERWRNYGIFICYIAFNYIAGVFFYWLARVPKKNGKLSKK
compound,measurement,setting,value
CC1(C)CCC2=C(O1)c1ccccc1C(=O)C2=O [Beta-lapachone],Inhibition of Pdr5p activity,Pdr5p [1],79.4%
"C[C@H]1O[C@@H](O[C@H]2[C@@H](O)C[C@H](O[C@H]3[C@@H](O)C[C@H](O[C@H]4CC[C@@]5(C)[C@H](CC[C@@H]6[C@@H]5C[C@@H](O)[C@]5(C)[C@@H](C7=CC(=O)OC7)CC[C@]65O)C4)O[C@@H]3C)O[C@@H]2C)C[C@H](O)[C@@H]1O [digoxin, Digoxin]",Antifungal activity of the compound alone,[2],neither presented antifungal activity
same,Interaction with fluconazole (qualitative),"strain AD/124567 [3]; S. cerevisiae, agar diffusion assay and checkerboard titration",indifferent to interaction with fluconazole
same,Effect on R6G efflux / Pdr5p activity (qualitative),Pdr5p [4],unable to inhibit Pdr5p activity; also recorded: did not affect Pdr5p activity
OC(Cn1cncn1)(Cn1cncn1)c1ccc(F)cc1F [Fluconazole],MIC,"strain AD/124567 [3]; Saccharomyces cerevisiae, strain AD/124567, 80% growth inhibition, read-out: Fluconazole MIC a (alone)",480 µg/mL
same,MIC,[5],62.5 µg/mL
C=CC[C@@H]1/C=C(\C)C[C@H](C)C[C@H](OC)[C@H]2O[C@@](O)(C(=O)C(=O)N3CCCC[C@H]3C(=O)O[C@H](/C(C)=C/[C@@H]3CC[C@@H](O)[C@H](OC)C3)[C@H](C)[C@@H](O)CC1=O)[C@H](C)C[C@@H]2OC [FK-506],Inhibition zone,strain AD/124567 [6],18 mm
Nc1ncc(/C=C/CNC(=O)c2cc(Br)c(Br)[nH]2)[nH]1 [Oroidin],Inhibition of R6G efflux,Pdr5p [7],60%
